Consider one compound from patent US11952328B2, “Selective ship inhibitors for treating disease” (THE RESEARCH FOUNDATION FOR THE STATE UNIVERSITY OF NEW YORK, priority 2018, dated 2024).

In test [1] the test system is RMA-Rael cells. The experiment in a line: Acute rejection of RMA-Rael lymphoma, tumor burden by peritoneal lavage. Type of test: in vivo, mice. The method, then:
FIGS. 4A-4D show the effects of SHIP1 inhibition using 3AC in mice. 5×10^5 GFP-expressing RMA-Rael cells were injected into C57BL/6 (FIG. 4A), RAG1−/− (FIG. 4B), or into C57BL/6 hosts (FIG. 4C-4D) with antibody depleted (NK) or intact (Iso) NK cell compartment. Mice were treated with either SHIP inhibitor or vehicle for two days. Tumor burden was determined by flow cytometric analysis of peritoneal cavity contents recovered by peritoneal lavage performed on the third day. Graphs represent pooled data from two independent experiments using at least 4 SHIP inhibitor-treated mice and 4 vehicle-treated mice in each experiment. FIG. 4A (p=0.0433; Mann-Whitney U test). FIG. 4B (p=0.0007; Mann-Whitney U test). FIG. 4C (p=0.0153; Unpaired t test with Welch's correction). FIG. 4D (p=0.9188. Mann-Whitney U test).
To determine if acute SHIP inhibitor treatment promoted in vivo clearance of tumor cells expressing a ligand for such receptors, the ability of SHIP inhibitor treatment to increase host rejection of tumor targets in vivo using the C57BL/6-derived H2b T cell lymphoma, RMA-Rael was analyzed. NK cell mediated rejection of RMA- Rael cells requires perforin expression and is independent of IFNγ production, and thus this assay allows for interrogation of a different NK cell effector function than that analyzed in FIG. 3 (Hayakawa, Y. et al., Cutting edge: tumor rejection mediated by NKG2D receptor-ligand interaction is dependent upon perforin. J Immunol. (2002); 169: 5377-538). Mice were challenged with syngeneic tumor cells followed by treatment with 3AC or vehicle for 2 consecutive days. On the third day peritoneal lavage was performed to evaluate tumor burden. […] To assess whether NK cells contributed to acute tumor rejection the same experiment using NK cell depleted C57BL/6 hosts (DNK) was performed. […] This increase in tumor burden was not seen in vehicle treated mice that were also depleted of NK cells (FIG. 4D).

For test [2], the system named is RMA-Rael cells. The experiment in a line: RMA-Rael viability following in vitro treatment. The format is cell-based, mice. Particulars: 24 h, doses given as 5-20 pM, vs solvent only. An excerpt: FIGS. 5A-5I show the effects of SHIP1 inhibitor as a chemotherapeutic. […] FIG. 5D and FIG. 5E show the representative histograms and box-and-whisker plots of FasL expression by NK cells from C56BL/6 (p=0.0002; Unpaired t test with Welch's correction) or RAG1−/− (p<0.0001; Mann-Whitney U test) tumor challenged, SHIP inhibitor or vehicle treated hosts. […] (NK cells p=0.0192; Unpaired t test with Welch's correction. T cells p=0.0659; Mann-Whitney U test). Additionally, FIGS. 5A-5G show the analysis by flow cytometry on day 3 after hosts receive SHIP inhibitor or vehicle for two consecutive days. NK cells are defined as NK1.1+CD3ε−. The graphs are representative of at least two independent experiments with at least four SHIP inhibitor and vehicle treated mice. […] Viability is expressed as frequency at a given concentration expressed as a percentage of solvent only treated cells. The kill curve summarizes pooled data from three independent experiments using six replicate wells/concentration with mean ±SEM indicated (n=18 per group. One-way ANOVA with Dunnett's multiple comparisons. 0 pM vs. 20 pM Adjusted p value =0.0001. 0 pM vs. 15 pM Adjusted p value =0.0001. 0 pM vs. 10 pM Adjusted p value =0.0001. 0 pM vs. 7.5 pM Adjusted p value =0.0001. 0 pM vs. 5 pM Adjusted p value =0.0001). […]

Entries after “also recorded” stand apart in the source; their conditions may differ.

For the compound `CC(C)CCC[C@@H](C)[C@H]1CC[C@H]2[C@@H]3CCC4C[C@H](N)CC[C@]4(C)[C@H]3CC[C@]12C` (stereo partly drawn) [Compound 3AC, 3-α-aminocholestane], in the test on RMA-Rael cells [1] (3AC-treated hosts with intact NK cell compartment vs 3AC hosts depleted of NK cells), the tumor rejection entry was “significantly greater tumor rejection”. Also, the tumor burden result with RMA-Rael cells [1] (C57BL/6 hosts depleted of NK cells or not, 3AC vs vehicle) is listed as “profound reduction of tumor burden; also recorded: large reduction in tumor burden”. Also, the lymphoma burden entry with RMA-Rael cells [1] (C57BL/6 hosts, 5×10^5 RMA-Rael, 2 consecutive days treatment, lavage on third day, vs vehicle) is listed as “dramatic reduction”. For the same compound, in the test with RMA-Rael cells [2], the “RMA-Rael viability (direct killing)” value is “capable of directly killing RMA-Rael cells; also recorded: cytotoxic”.
